The record followed here is patent publication US8415095B2, “Use of nucleoside derivatives comprising a citrate group for the production of antibodies having an affinity for triphosphorylated nucleosides” (Centre National de la Recherche-Scientifique-CNRS, priority 2003, dated 2013).

The test system of data set [1] is anti-isostere antibody of ddATP. Nature of the data set: Radioimmunological determination (RIA) of the specificity of the anti-isostere antibody of ddATP, tracer ddA-HS-K-125IY. The arrangement: species or system rabbit. To be noted: concentration of non-tagged antigen which inhibits 50% of the antigen-antibody binding. The source says: The polyclonal antibodies were produced in the rabbit, according to standard methods.
The antibodies having an affinity for the ddNTP derivatives can be identified by immunological techniques either by means of immunoenzymatic determinations or by means of radioimmunological determinations (RIA).
The specificity of these antibodies was studied in relation to different analogues of ddATP.

The subject of a further data set is blood monocyte cells. The data set is described as follows: In vitro cell model: blood monocyte cells incubated with ddI, RIA of supernatant ddI and intracellular ddATP after Sep Pak anionic cartridge. It is filed as in vitro ADME, human. To be noted: for Intracellular content in ddATP eq. (pmoles/10^6) cells: fractions 32-37. As to the method:
Separation by anionic chromatography of the different phosphorylated metabolites stemming from the cellular metabolism of the ddI (ddIMP, ddAMP, ddADP and ddATP) was performed on Sep Pak anionic cartridge by means of a stepwise gradient using different concentrations of KCl (6 ml KCl 50 mM, 10 ml KCl 100 mM and 6 ml KCl 250 mM).
A certain number of controls were performed on an in vitro cell model. After separation by density gradient on Ficoll, the blood monocyte cells were incubated with different concentrations of ddI in the RPMI (at the level of 5×10^5 cells per ml).
The immunoreactivity present in the supernatant was expressed in equivalents (eq.) ddI established in relation to a ddI reference curve, and illustrated in Table 2 below. The ddATP immunoreactivity corresponds to the sum of the immunoreactivities present in the fractions 32-37 stemming from the separation of the intracellular contents on Sep Pak anionic cartridge. The immunoreactivity was expressed in ddATP equivalents in relation to a ddATP reference curve, and is also illustrated in Table 2 below.
The nature of the immunoreactive material present in the culture supernatant and in the intracellular medium was controlled by chromatography on a Sep Pak anionic cartridge. and detected by radioimmunological quantitation. […] This is shown in attached FIG. 2.

The conditions of data set [2]: human, in vivo. The method, then:
Blood samples were collected from patients infected with HIV-1 and undergoing treatment comprising administration of ddI. The patients were under the supervision of Professor P. Dellamonica at the Archet Hospital in Nice. The blood samples were collected using cell preparation tubes (CPT) at the rate of two 4-ml tubes for each of the 4 patients participating in this study. Quantification of the ddI in the plasma was performed for each patient and expressed in ddI equivalents. Intracellular quantification of ddATP was performed after chromatography (on Sep Pak anionic cartridge) of the cellular lysates. For each fraction (500 μl), the cellular content of ddATP was determined directly and expressed in ddATP equivalents; quantification was then performed after dephosphorylation and expressed in ddA equivalents.

“And” between values parts separate entries of the source, which are not always exact repeats. Identical values can stand only once.

As usually defined, the IC50 is the concentration that inhibits the measured activity by half. Read a high IC50 as weaker potency.

Molecule `Nc1ncnc2c1ncn2[C@@H]1O[C@H](COP(=O)(O)O)[C@@H](O)[C@H]1O` [AMP] had a half-maximal inhibitory concentration (IC50) in data set [1] above 1000 µM.

In turn, `Nc1ncnc2c1ncn2[C@@H]1O[C@H](COP(=O)(O)OP(=O)(O)OP(=O)(O)O)[C@@H](O)[C@H]1O` [ATP] showed a concentration for half-maximal inhibition (IC50) in data set [1] of 36 µM.

Turning to `Nc1ncnc2c1ncn2C1CCC(COC(=O)CC(O)(CC(=O)O)C(=O)O)O1` (centres unmarked) [isostere of ddATP, 5′-O-(3,4-dicarboxy-3-hydroxy)butanoate-2′,3′-didesoxyadenosine], the IC50 in data set [1] was determined as 5.2e-05 µM.

With `Nc1ncnc2c1ncn2[C@@H]1O[C@H](COP(=O)(O)OP(=O)(O)O)[C@@H](O)[C@H]1O` [ADP], in data set [1], the IC50 was above 1000 µM.

Consider `Nc1ccn([C@H]2CC[C@@H](CO)O2)c(=O)n1` [ddC], for which the IC50 in data set [1] is above 1000 µM.

As for `Nc1ccn(C2CSC(CO)O2)c(=O)n1` (centres unmarked) [3TC, 2′,3′-dideoxyo-3′-thiacytidine], in data set [1], the 50% inhibitory concentration (IC50) stood at 200 µM.

The molecule `Nc1ncnc2c1ncn2C1CC(O)C(CO)O1` (centres unmarked) [dA] displayed an IC50 in data set [1] of 0.3 µM. This IC50 lies about 670-fold lower than the previous one.

In data set [1], `Nc1ncnc2c1ncn2[C@H]1CC[C@@H](CO)O1` [ddA, 2′,3′-dideoxyadenosine] showed an IC50 of 0.0004 µM.

The molecule `Nc1ncnc2nc[nH]c12` [adenine] yielded an IC50 in data set [1] of 9 µM.

As to `Nc1ncnc2c1ncn2[C@H]1CC[C@@H](COP(=O)(O)OP(=O)(O)OP(=O)(O)O)O1` [ddATP, 2′,3′-didesoxyadenosine-5′-triphosphate], in data set [1], the half-inhibitory concentration (IC50) was determined as 0.0011 µM.

In data set [1], `O=c1[nH]cnc2c1ncn2[C@H]1CC[C@@H](CO)O1` [ddI] came in with a half-inhibitory concentration (IC50) of 0.002 µM. Further, the “intracellular immunoreactive content eluted in the elution volume of ddATP (yield)” value with blood monocyte cells (Sep Pak anionic cartridge) was determined as 92%. Also, the “share of supernatant immunoreactivity in fractions 1 to 5 (elution volume of ddI)” value in the data set with blood monocyte cells (culture supernatants n=4, Sep Pak anionic cartridge) is 100%. The “Concentration of ddI of the supernatant in ddI eq.” value in the data set with blood monocyte cells (incubated ddI 1 × 10^−4 M) is 130 µM and 150 µM. The “Concentration of ddI of the supernatant in ddI eq. (M)” value is reported as 3.8 ± 0.34 × 10^−5 (n = 2) M with blood monocyte cells (incubated ddI 1 × 10^−5 M), 2.74 × 10^−7 (n = 1) M in the data set with blood monocyte cells (incubated ddI 1 × 10^−7 M) and 5.74 × 10^−6 (n = 1) M in the data set with blood monocyte cells (incubated ddI 5 × 10^−6 M). For the same molecule, the “Intracellular content in ddATP eq. (pmoles/10^6) cells” value with blood monocyte cells (incubated ddI 1 × 10^−5 M) was 10.4 ± 0.6 (n = 2) pmoles/10^6 cells; in the data set on blood monocyte cells (incubated ddI 1 × 10^−7 M) it was 0.15 (n = 1) pmoles/10^6 cells; in the data set with blood monocyte cells (incubated ddI 5 × 10^−6 M) it was 1.8 (n = 1) pmoles/10^6 cells. The “ddI in the cells” value in the data set with blood monocyte cells (no immunoreactive material at the retention time of ddI) is recorded as “not detectable”. In data set [2], the plasma concentrations is recorded as 2-6×10^−6.

In data set [1], `Nc1ncnc2c1ncn2[C@@H]1O[C@H](CO)[C@@H](O)[C@H]1O` [adenosine] had a half-inhibitory concentration (IC50) of 2.4 µM.
